Like-named read-outs stand apart in the source and are kept apart here.
Experiments:
[1] = target: T1, aldehyde oxidase (AO) (Homo sapiens (Human), UniProt Q06278); test: in vitro
Procedure: All calculations were carried out using Microsoft Excel. Peak areas were determined from extracted ion chromatograms. The slope value, k, was determined by linear regression of the natural logarithm of the remaining percentage of the parent drug vs. incubation time curve.

[2] = target: PIK3Cγ (pp110γ) (Homo sapiens (Human), UniProt P48736); test: PI3K biochemical potency assay (Assay c), PIK3Cγ
Procedure: Assay c): PI3K Biochemical Potency
(§1) 2.5 μl of kinase solution was added to each well of the 384-well assay plate, which contains 2.5 μl of compounds with serially diluted concentration. 2× substrate solution was prepared with PIP2 substrate and ATP in 1× kinase reaction buffer at 2-fold of the final concentration of each reagent in the assay. 5 μl of substrate solution was added to each well of the assay plate to start reaction. The assay plate was incubated at room temperature for 1 hour. 5 μl reaction mix was transferred to a new 384 well plate. 5 μl of ADP-Glo reagent (Promega, Cat. No. v9102/3) was added to each well of the new assay plate to stop the reaction. The plate was shaken slowly and equilibrated for 40 minutes. 10 μl kinase detection reagents were added to each well, which was equilibrated for 60 minutes before read on a plate reader (Envision) for luminescence.

[3] = target: PIK3Cβ (p110β) (Homo sapiens (Human), UniProt P42338); test: PI3K biochemical potency assay (Assay c), PIK3Cβ
Procedure: Assay c): PI3K Biochemical Potency
as §1

[4] = target: ATM (Homo sapiens (Human), UniProt Q13315); test: biochemical; assay type: biochemical; details: read-out: ATM IC50
Description: Assay a): ATM Biochemical Potency
Data was collected by Caliper.

[5] = target: ATM (phospho-ATM Ser1981) in SN38 treated HT-29 cells (Homo sapiens (Human), UniProt Q13315); test: cell-based; details: HT-29 cells, SN-38; read-out: SN-38 HT-29 cellular IC50
Procedure: Assay g): ATM SN-38 HT-29 Cellular Potency
SN38 causes single strand DNA breaks (SSBs) which are converted to double strand breaks (DSBs) during replication. ATM plays role of repairing DSBs. Inhibition of ATM was evaluated in SN38 treated HT-29 cells (ATCC, Cat #HTB-38) by high-Content Imaging System
The graphical views were then generated using Prism 7.0 (Graphpad).

[6] = system: phosp-KAP1 in MCF-7 cells; test: phosp-KAP1 MCF-7 cellular potency assay (Assay f); assay type: cell-based; details: Homo sapiens, MCF7; MCF-7 cells, etoposide; read-out: Etoposide MCF-7 cellular IC50
[7] = target: PI3Kα (p110α/p85a) (Homo sapiens (Human), UniProt P42336); test: PI3K biochemical potency assay (Assay c), PI3Kα
Procedure: Assay c): PI3K Biochemical Potency
as §1

[8] = target: ATR (Homo sapiens (Human), UniProt Q13535); test: ATR biochemical potency assay (Assay b)
Procedure: Assay b): ATR Biochemical Potency
The plate was incubated at room temperature for 10 minutes. 2× peptide solutions were prepared with FAM-labeled peptide and ATP in the 1× kinase base buffer. […] 40 μl of stop buffer was added to stop reaction. Data were collected by Caliper.

[9] = target: DNA-PK (Homo sapiens (Human), UniProt P78527); test: DNA-PK biochemical assay (Assay e)
Procedure: Assay e): DNA-PK Biochemical Assay
The final concentration: Substrate 0.2 ug/ml and ATP 20 uM. […] The plate was equilibrated for 2 hr at room temperature.

[10] = target: PIK3Cδ (Homo sapiens (Human), UniProt O00329); test: PI3K biochemical potency assay (Assay c), PIK3Cδ
Procedure: Assay c): PI3K Biochemical Potency
as §1

[11] = target: mTOR (Homo sapiens (Human), UniProt P42345); test: mTOR biochemical potency assay (Assay d)
Procedure: Assay d): mTOR Biochemical Potency
Solution of mTOR enzymes (Millipore, Cat. No. 14-770) was prepared in 1× kinase buffer at 4-fold of the final concentration (final concentration: 6 nM) in the assay. 2.5 μl of kinase solution was added to each well of the 384-well assay plate, which contains 2.5 μl of compounds with serially diluted concentration. 2× substrate solution was prepared with ULight-4E-BP1 (Thr37/46) Peptide (PE, Cat. No. TRF0128-M) and ATP in 1× kinase reaction buffer at 2-fold of the final concentration of each reagent in the assay. 5 μl of substrate solution was added to each well of the assay plate to start reaction. The assay plate was incubated at room temperature for 30 minutes. Detection solution of kinase quench buffer (EDTA) and Eu-anti-phospho-4E-BP1 antibody (Thr37/46) (PE, Cat. No. TRF0216-M) were prepared at 2-fold the desired final concentrations of each reagent in Lance detection buffer. 10 μl of detection solution buffer was added to each well of the assay plate.

[12] = system: FaDu xenograft; test: FaDu xenograft model, radiation combination (Assay i); assay type: in vivo, mouse; details: oral compound in combination with IR (2 Gy per day, 5 days per cycle)
Procedure: Assay i): FaDu Xenograft Model
Cell culture: FaDu tumor cells were cultured in an EMEM medium containing inactivated 10% fetal bovine serum, 100 U/ml penicillin and 100 μg/ml streptomycin in a 37° C., 5% CO2 incubator.
Inoculation and grouping: Xenografts were established by implantation of 100 μl of Fadu tumor cell suspension (5×10^6 cells/mouse) subcutaneously into the right flank of female immune-compromised BALB/c nude mice at least 6 weeks of age. Tumours were measured in two dimensions with calipers and the tumour volume was calculated using the following formula: tumor volume=(length×width^2)×0.5. When the average tumor volume reached 100 to 150 mm^3, tumour-bearing mice were randomized into treatment groups.
Treatment and tumor assessment: Animals received 3 to 6 cycles of treatment with compounds combined with radiation therapy. Each cycle included 5 consecutive treatment day plus 2 days' rest. Ionizing radiation was administered using a fractionated schedule of 2 Gy per day administered over 5 consecutive days (total radiation dose=10 Gy/cycle). Compound was given orally 10 minutes before irradiation. The tumour volume and body weight of the mice were measured twice weekly.
Statistical Analysis: The One-Way ANOVA test was used for statistical analysis of tumor volume between groups, and p<0.05 was considered as a significant difference.

[13] = target: T1, aldehyde oxidase (AO); details: reference compounds of the human liver cytosolic system; cited from earlier work
[14] = cited from earlier work; for clearance in humans: Zientek et al. 2010

T1 sequence (Q06278 whole entry): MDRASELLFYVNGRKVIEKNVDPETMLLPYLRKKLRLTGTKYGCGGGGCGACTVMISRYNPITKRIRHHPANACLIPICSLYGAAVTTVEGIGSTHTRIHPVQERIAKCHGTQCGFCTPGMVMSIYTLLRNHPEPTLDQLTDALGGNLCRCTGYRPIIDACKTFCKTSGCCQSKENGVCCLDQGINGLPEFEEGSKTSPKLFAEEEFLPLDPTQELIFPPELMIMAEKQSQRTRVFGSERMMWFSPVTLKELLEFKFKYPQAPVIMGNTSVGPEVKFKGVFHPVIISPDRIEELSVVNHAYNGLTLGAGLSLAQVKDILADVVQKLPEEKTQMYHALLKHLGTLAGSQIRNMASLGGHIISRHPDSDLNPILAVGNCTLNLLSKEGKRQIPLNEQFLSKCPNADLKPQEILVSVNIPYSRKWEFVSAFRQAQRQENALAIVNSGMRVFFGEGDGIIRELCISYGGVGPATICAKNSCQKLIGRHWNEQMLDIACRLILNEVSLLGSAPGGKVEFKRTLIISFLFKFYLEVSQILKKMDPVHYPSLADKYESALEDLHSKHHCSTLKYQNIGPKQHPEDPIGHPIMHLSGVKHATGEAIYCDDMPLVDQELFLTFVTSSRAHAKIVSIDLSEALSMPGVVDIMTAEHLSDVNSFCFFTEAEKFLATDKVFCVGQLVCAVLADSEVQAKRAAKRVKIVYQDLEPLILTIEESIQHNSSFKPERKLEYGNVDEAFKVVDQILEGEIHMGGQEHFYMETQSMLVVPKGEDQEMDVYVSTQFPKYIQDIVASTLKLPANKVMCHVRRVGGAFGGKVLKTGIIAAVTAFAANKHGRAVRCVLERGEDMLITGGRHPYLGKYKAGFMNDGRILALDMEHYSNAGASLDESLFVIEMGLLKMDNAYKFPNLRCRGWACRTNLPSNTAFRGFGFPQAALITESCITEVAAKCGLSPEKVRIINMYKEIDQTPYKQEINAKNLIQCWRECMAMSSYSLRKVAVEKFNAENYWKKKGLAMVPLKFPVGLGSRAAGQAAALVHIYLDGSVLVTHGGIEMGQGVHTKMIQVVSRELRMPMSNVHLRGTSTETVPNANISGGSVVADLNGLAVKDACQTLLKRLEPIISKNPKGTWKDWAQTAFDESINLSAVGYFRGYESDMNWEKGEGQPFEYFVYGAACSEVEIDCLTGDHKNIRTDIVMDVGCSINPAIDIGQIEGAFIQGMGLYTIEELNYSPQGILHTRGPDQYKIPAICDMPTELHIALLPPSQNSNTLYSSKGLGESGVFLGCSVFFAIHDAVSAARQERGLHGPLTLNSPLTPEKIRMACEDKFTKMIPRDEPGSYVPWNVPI
Chain of PIK3Cγ (pp110γ) (P48736 whole entry): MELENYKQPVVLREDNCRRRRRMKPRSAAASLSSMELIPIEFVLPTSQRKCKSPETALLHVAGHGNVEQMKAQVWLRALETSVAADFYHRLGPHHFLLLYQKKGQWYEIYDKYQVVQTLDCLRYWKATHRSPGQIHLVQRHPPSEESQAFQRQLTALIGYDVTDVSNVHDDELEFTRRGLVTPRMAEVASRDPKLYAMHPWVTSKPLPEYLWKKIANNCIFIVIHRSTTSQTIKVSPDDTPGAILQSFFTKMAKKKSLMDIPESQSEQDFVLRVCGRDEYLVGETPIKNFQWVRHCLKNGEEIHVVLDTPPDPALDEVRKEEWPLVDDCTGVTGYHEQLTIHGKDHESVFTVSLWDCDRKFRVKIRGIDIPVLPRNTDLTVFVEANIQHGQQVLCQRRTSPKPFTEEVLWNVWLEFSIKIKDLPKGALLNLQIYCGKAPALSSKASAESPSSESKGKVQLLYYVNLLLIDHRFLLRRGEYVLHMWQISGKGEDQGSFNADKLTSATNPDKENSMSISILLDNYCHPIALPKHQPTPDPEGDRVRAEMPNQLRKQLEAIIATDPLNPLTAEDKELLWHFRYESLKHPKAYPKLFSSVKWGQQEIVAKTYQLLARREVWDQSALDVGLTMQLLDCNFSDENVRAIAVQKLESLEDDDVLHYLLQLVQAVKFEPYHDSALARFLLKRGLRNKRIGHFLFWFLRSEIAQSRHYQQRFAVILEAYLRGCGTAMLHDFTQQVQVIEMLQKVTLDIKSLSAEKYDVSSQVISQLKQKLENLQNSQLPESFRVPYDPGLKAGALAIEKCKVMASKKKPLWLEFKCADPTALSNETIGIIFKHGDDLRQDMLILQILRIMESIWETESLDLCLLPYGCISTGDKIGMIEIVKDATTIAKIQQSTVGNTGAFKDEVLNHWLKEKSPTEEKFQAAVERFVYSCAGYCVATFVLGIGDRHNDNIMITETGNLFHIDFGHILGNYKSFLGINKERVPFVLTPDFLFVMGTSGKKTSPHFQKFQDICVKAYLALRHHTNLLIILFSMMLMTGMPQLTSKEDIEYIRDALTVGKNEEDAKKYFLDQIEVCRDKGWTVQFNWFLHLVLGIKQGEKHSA
Chain of PI3Kα (p110α/p85a) (P42336 whole entry, looked up): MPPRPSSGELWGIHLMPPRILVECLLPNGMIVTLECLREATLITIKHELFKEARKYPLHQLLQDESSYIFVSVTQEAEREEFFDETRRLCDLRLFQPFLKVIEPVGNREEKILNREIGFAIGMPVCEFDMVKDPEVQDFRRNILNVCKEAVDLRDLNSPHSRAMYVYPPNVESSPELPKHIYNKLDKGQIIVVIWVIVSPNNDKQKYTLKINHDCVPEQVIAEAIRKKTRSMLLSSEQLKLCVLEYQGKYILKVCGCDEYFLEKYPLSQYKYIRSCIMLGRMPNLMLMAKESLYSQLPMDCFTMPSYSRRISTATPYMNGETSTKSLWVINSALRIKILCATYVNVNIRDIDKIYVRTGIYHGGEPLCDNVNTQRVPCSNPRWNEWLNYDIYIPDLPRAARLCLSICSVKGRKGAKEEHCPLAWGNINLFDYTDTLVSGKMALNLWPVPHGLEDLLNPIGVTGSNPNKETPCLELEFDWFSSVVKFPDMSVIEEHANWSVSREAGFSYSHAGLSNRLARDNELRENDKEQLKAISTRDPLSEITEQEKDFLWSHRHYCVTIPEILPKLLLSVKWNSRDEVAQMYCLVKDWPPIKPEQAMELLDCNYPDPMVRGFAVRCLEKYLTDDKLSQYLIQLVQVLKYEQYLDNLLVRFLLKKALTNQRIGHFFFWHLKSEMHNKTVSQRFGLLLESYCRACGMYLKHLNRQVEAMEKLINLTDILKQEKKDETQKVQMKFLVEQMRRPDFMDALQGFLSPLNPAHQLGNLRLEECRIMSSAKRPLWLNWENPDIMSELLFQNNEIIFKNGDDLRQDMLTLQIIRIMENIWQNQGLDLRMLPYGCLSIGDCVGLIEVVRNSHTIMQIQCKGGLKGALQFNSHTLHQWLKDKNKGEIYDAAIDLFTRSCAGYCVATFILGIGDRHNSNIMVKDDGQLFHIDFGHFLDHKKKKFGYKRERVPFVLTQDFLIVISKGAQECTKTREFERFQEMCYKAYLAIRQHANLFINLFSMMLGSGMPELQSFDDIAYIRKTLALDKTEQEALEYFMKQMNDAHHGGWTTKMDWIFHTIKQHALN
Chain of PI3Kα (p110α/p85a) (P27986 whole entry partner, looked up): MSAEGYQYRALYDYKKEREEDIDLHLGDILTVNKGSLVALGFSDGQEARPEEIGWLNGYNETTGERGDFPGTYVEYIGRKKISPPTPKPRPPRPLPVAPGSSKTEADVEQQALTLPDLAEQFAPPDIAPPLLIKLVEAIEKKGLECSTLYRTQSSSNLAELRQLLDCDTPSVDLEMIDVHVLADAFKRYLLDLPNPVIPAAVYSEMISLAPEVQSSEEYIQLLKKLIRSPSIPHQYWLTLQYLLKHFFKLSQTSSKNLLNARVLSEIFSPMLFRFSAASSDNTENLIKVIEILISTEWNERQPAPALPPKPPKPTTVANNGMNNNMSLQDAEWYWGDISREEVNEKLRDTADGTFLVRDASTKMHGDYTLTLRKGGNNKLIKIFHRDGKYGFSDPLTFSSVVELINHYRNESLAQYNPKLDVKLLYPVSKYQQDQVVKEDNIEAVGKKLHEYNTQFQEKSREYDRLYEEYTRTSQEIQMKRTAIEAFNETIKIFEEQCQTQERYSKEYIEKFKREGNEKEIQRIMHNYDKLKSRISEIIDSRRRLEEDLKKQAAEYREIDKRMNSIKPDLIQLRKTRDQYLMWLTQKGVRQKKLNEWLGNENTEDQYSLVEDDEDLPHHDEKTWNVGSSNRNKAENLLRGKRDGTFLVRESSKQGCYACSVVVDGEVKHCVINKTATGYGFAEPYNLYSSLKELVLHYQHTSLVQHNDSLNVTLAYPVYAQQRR

Compound | IC50 ([2]; read-out: PI3Kγ IC50) [µM] | IC50 ([3]; read-out: PI3Kβ IC50) [µM] | IC50 [4] [µM] | IC50 ([7]; read-out: PI3Kα IC50) [µM] | IC50 [8] [µM] | IC50 [9] [µM] | IC50 ([10]; read-out: PI3Kδ IC50) [µM] | IC50 ([11]; read-out: mTor IC50) [µM] | further results
CC(C)n1c(=O)n(C)c2cnc3cc(F)c(-c4ccc(OCCCN5CCCCC5)nc4)cc3c21 [AZD1390] |  |  |  |  |  |  |  |  | AO substrate classification ([1]; human liver cytosol): strong AO substrate
CC(C)n1c(=O)n(C)c2nnc3ccc(-c4ccc(COCCN5CCC(C)(C)CC5)nc4)cc3c21 [Example 31, 8-(6-((2-(4,4-dimethylpiperidin-1-yl)ethoxy)methyl)pyridin-3-yl)-1-isopropyl-3-methyl-1H-imidazo[4,5-c]cinnolin-2(3H)-one] | > 10 | > 10 | 0.011 | > 10 | > 10 | > 10 | > 10 | > 10 | IC50 [5]: 0.029 µM; IC50 [6]: 0.016 µM
COC1CCN(CCO[C@H](C)c2ccc(-c3ccc4nnc5c(c4c3)n(C(C)C)c(=O)n5C)cn2)CC1 [Example 56, (R)-1-isopropyl-8-(6-(1-(2-(4-methoxypiperidin-1-yl)ethoxy)ethyl)pyridin-3-yl)-3-methyl-1H-imidazo[4,5-c]cinnolin-2(3H)-one] | > 10 | > 10 | 0.0032 | > 10 | > 10 | > 10 | > 10 | > 10 | 
CC(C)n1c(=O)n(C)c2nnc3ccc(-c4ccc([C@@H](C)OCCN5CC[C@@H](OC6CC6)C5)nc4)cc3c21 [Example 76, 8-(6-((R)-1-(2-((R)-3-cyclopropoxypyrrolidin-1-yl)ethoxy)ethyl)pyridin-3-yl)-1-isopropyl-3-methyl-1H-imidazo[4,5-c]cinnolin-2(3H)-one] |  |  |  |  | > 10 | > 10 |  |  | IC50 [2]: > 10 µM; IC50 [3]: > 10 µM; IC50 [7]: > 10 µM; IC50 [10]: > 10 µM; IC50 [11]: > 10 µM
CC(C)n1c(=O)n(C)c2nnc3ccc(-c4ccc([C@@H](C)OCCN5CC[C@@H](C)C5)nc4)cc3c21 [Example 77, 1-isopropyl-3-methyl-8-(6-((R)-1-(2-((R)-3-methylpyrrolidin-1-yl)ethoxy)ethyl)pyridin-3-yl)-1H-imidazo[4,5-c]cinnolin-2(3H)-one] | > 10 | > 10 | 0.0048 | > 10 | > 10 | > 10 | > 10 | > 10 | 
C[C@@H](OCCN1CCC2(CC2)C1)c1ccc(-c2ccc3nnc4c(c3c2)n(C2CCOCC2)c(=O)n4C)cn1 [Example 102, (R)-8-(6-(1-(2-(5-azaspiro[2.4]heptan-5-yl)ethoxy)ethyl)pyridin-3-yl)-3-methyl-1-(tetrahydro-2H-pyran-4-yl)-1H-imidazo[4,5-c]cinnolin-2(3H)-one] |  |  |  |  | > 10 |  |  |  | IC50 [2]: > 10 µM; tumor response in FaDu xenograft efficacy study [12]: tumor xenograft regression was observed and tumors did not relapse until the end of the study; IC50 [3]: > 10 µM; IC50 [7]: > 10 µM; IC50 [10]: > 10 µM; IC50 [11]: > 10 µM
CO[C@H]1C[C@H](n2c(=O)n(C)c3nnc4ccc(-c5ccc([C@@H](C)OCCN6CCCC6)nc5)cc4c32)C1 [Example 162, 1-(trans-3-methoxycyclobutyl)-3-methyl-8-(6-((R)-1-(2-(pyrrolidin-1-yl)ethoxy)ethyl)pyridin-3-yl)-1,3-dihydro-2H-imidazo[4,5-c]cinnolin-2-one] | > 10 | > 10 | 0.007 | > 10 | > 10 | > 10 | > 10 | > 10 | IC50 [5]: 0.0055 µM
CC(C)n1c(=O)n(C)c2nnc3ccc(-c4ccc([C@H](OCCN5CCCC5)C(F)(F)F)nc4)cc3c21 [Example 184, (S)-1-isopropyl-3-methyl-8-(6-(2,2,2-trifluoro-1-(2-(pyrrolidin-1-yl)ethoxy)ethyl)pyridin-3-yl)-1,3-dihydro-2H-imidazo[4,5-c]cinnolin-2-one] | > 10 | > 10 | 0.0028 | > 10 | > 10 | > 10 | > 10 | > 10 | 
CC(C)n1c(=O)n(C)c2nnc3ccc(-c4ccc([C@@H](OCCN5CCCC5)C(F)(F)F)nc4)cc3c21 [Example 185, (R)-1-isopropyl-3-methyl-8-(6-(2,2,2-trifluoro-1-(2-(pyrrolidin-1-yl)ethoxy)ethyl)pyridin-3-yl)-1,3-dihydro-2H-imidazo[4,5-c]cinnolin-2-one] | > 10 | > 10 | 0.292 | > 10 | > 10 | > 10 | > 10 | > 10 | 
OCCn1cc(-c2cnc3nnn(Cc4ccc5ncccc5c4)c3n2)cn1 [PF-04217903, 2-[4-[3-(quinolin-6-ylmethyl)triazolo[4,5-b]pyrazin-5-yl]pyrazol-1-yl]ethanol] |  |  |  |  |  |  |  |  | AO substrate classification (reported) [13]: weak AO substrate
CCN(C(C)=O)c1cccc(-c2ccnc3c(C#N)cnn23)c1 [Reference compound 4, Zaleplon] |  |  |  |  |  |  |  |  | microsomal CLint ([1]; human, cytosol): 0.893 µL/min/mg; clearance in humans [14]: 16 mL/min/kg; clearance in humans corresponding to liver blood flow [14]: ~80 % liver blood flow
OCCn1cc(-c2cnc3nnn(Cc4ccc5ncccc5c4)c3n2)cn1 [Reference compound 5, PF-04217903] |  |  |  |  |  |  |  |  | clearance in humans [14]: 6 mL/min/kg; clearance in humans corresponding to liver blood flow [14]: ~30 % liver blood flow
CCN(C(C)=O)c1cccc(-c2ccnc3c(C#N)cnn23)c1 [Zaleplon, N-[3-(3-cyanopyrazolo[1,5-a]pyrimidin-7-yl)phenyl]-N-ethylacetamide] |  |  |  |  |  |  |  |  | AO substrate classification (reported) [13]: strong AO substrate
